The values that follow come from US10316028B2, “Orexin receptor antagonists” (Heptares Therapeutics Limited, priority 2012, dated 2019).

Each structure is given as a SMILES string.

The test deals with T1, human Orexin-2 receptor (Homo sapiens, UniProt O43614).
T1 construct: expressed in transfected cells; host or cells: HEK293 cells (transient transfection, Genejuice); membranes
T1 sequence (O43614 1-444): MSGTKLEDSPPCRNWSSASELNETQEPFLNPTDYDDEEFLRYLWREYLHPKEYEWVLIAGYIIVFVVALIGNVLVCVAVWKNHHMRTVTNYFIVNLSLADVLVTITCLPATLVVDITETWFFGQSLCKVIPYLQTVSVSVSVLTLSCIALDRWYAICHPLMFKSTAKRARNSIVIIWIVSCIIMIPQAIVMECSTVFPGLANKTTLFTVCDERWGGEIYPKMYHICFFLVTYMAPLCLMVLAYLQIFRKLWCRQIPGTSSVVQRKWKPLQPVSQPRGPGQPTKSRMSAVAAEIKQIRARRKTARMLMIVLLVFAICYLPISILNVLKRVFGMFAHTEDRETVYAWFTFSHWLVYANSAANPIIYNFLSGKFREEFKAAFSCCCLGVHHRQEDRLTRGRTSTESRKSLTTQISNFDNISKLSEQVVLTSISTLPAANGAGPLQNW
Description: 3H-EMPA radioligand binding assay. As to conditions: 3H-EMPA displacement, membranes of HEK293 cells transfected with human Orexin-2 receptor; KI by Cheng-Prussoff; read-out: OX2 pKi ave (converted). The essentials:
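Membranes from HEK293 cells transiently transfected with human orexin-2 receptor cDNA, assayed with [3H]EMPA. Bound ligand collected on PEI-treated GF/B filters and counted by scintillation; IC50 from inhibition curves, Ki by Cheng-Prusoff.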
Regarding `CSc1cccc(N2C(=O)N(Cc3c(F)cccc3Cl)c3cc(F)ccc3S2(=O)=O)c1` [Example 76, 4-(2-Chloro-6-fluorobenzyl)-6-fluoro-2-[3-(methylsulfanyl)phenyl]-2H-1,2,4-benzothiadiazin-3(4H)-one 1,1-dioxide], the Ki is 14.8 nM.
As for `COc1ccc(N2C(=O)N(Cc3c(C)cccc3C)c3ccccc3S2(=O)=O)cc1OC` [Example 77, 4-(2,6-Dimethylbenzyl)-2-(3,4-methoxyphenyl)-2H-1,2,4-benzothiadiazin-3(4H)-one 1,1-dioxide], the figure is 8.91 nM; as for `COc1cc(N2C(=O)N(Cc3c(F)cccc3Cl)c3ccccc3S2(=O)=O)cc(OC)c1OC` [Example 78, 4-(2-Chloro-6-fluorobenzyl)-2-(3,4,5-trimethoxyphenyl)-2H-1,2,4-benzothiadiazin-3(4H)-one 1,1-dioxide], 4.07 nM; as for `COc1ccc(N2C(=O)N(Cc3c(C)cccc3F)c3ccccc3S2(=O)=O)cc1OC` [Example 79, 4-(2-Fluoro-6-methylbenzyl)-2-(3,4-methoxyphenyl)-2H-1,2,4-benzothiadiazin-3(4H)-one 1,1-dioxide], 0.389 nM.
As for `COc1c(C)cc(N2C(=O)N(Cc3ccc(F)cc3Cl)c3ccccc3S2(=O)=O)cc1C` [Example 80, 4-(2-Chloro-4-fluorobenzyl)-2-(4-methoxy-3,5-dimethylphenyl)-2H-1,2,4-benzothiadiazin-3(4H)-one 1,1-dioxide], the figure is 7.59 nM.
With `COc1c(C)cc(N2C(=O)N(Cc3c(F)cccc3Cl)c3ccccc3S2(=O)=O)cc1C` [Example 81, 4-(2-Chloro-6-fluorobenzyl)-2-(4-methoxy-3,5-dimethylphenyl)-2H-1,2,4-benzothiadiazin-3(4H)-one 1,1-dioxide] the figure was 0.0832 nM.
For the molecule `Cc1cc(N2C(=O)N(Cc3c(F)cccc3Cl)c3ccccc3S2(=O)=O)cc(C)c1O` [Example 82, 4-(2-Chloro-6-fluorobenzyl)-2-(4-hydroxy-3,5-dimethylphenyl)-2H-1,2,4-benzothiadiazin-3(4H)-one 1,1-dioxide], the Ki is 3.31 nM.
As for `CSc1cccc(N2C(=O)N(Cc3cc(C)nn3C)c3ccccc3S2(=O)=O)c1` [Example 83, 4-[(1,3-Dimethyl-1H-pyrazol-5-yl)methyl]-2-[3-(methylsulfanyl)phenyl]-2H-1,2,4-benzothiadiazin-3(4H)-one 1,1-dioxide], the figure is 295 nM.
For the molecule `COc1ccc(N2C(=O)N(Cc3c(C)ccnc3C)c3ccccc3S2(=O)=O)cc1OC` [Example 84, 2-(3,4-Dimethoxyphenyl)-4-[(2,4-dimethylpyridin-3-yl)methyl]-2H-1,2,4-benzothiadiazin-3(4H)-one 1,1-dioxide], the Ki was 490 nM.
`COc1ccc(N2C(=O)N(Cc3c(F)cncc3F)c3ccccc3S2(=O)=O)cc1OC` [Example 85, 4-[(3,5-Difluoropyridin-4-yl)methyl]-2-(3,4-dimethoxyphenyl)-2H-1,2,4-benzothiadiazin-3(4H)-one 1,1-dioxide]: the Ki was 60.3 nM.
In the case of `COc1ccc(N2C(=O)N(Cc3ncc(C)cc3C)c3ccccc3S2(=O)=O)cc1OC` [Example 86, 4-[(3,5-Dimethylpyridin-2-yl)methyl]-2-(3,4-dimethoxyphenyl)-2H-1,2,4-benzothiadiazin-3(4H)-one 1,1-dioxide], the Ki is 74.1 nM.
As for `CSc1cccc(N2C(=O)N(Cc3ncccc3C)c3ccccc3S2(=O)=O)c1` [Example 87, 4-[(3-Methylpyridin-2-yl)methyl]-2-[3-(methylsulfanyl)phenyl]-2H-1,2,4-benzothiadiazin-3(4H)-one 1,1-dioxide], the figure is 35.5 nM.
With `COc1ccc(N2C(=O)N(Cc3ncccc3F)c3ccccc3S2(=O)=O)cc1OC` [Example 88, 2-(3,4-Dimethoxyphenyl)-4-[(3-fluoropyridin-2-yl)methyl]-2H-1,2,4-benzothiadiazin-3(4H)-one 1,1-dioxide] the figure was 28.2 nM.
